The values below come from PMC7321161, “The Intriguing Effects of Substituents in the N-Phenethyl Moiety of Norhydromorphone: A Bifunctional Opioid from a Set of “Tail Wags Dog” Experiments” (Molecules, 2020).

The structures appear in SMILES notation. “And” between values parts separate entries of the source, which are not always exact repeats. Equal values may be shown once.

Assay [1] addresses T1, human μ-opioid receptor (OPRM1) (Homo sapiens, UniProt P35372).
T1 construct: host or cells: HitHunter CHO-K1 cells
In words: cell-based. Conditions: for EC50: MOR cAMP Agonist Potency ± SEM; for Emax: OPRM1, read-out: MOR cAMP % Efficacy.

Assay [2] addresses T2, human δ-receptor (OPRMD1) (Homo sapiens, UniProt P41143).
T2 construct: host or cells: HitHunter CHO-K1 cells
The assay can be described thus: cell-based. The format is cell-based. Conditions: for Emax: CHO-K1, read-out: DOR cAMP % Efficacy; for EC50: DOR cAMP Agonist Potency ± SEM.

The target of the next assay is T3, κ-opioid receptor (KOR) (Rattus norvegicus, UniProt P34975).
T3 construct: Frozen whole rat brains excluding cerebellum were thawed on ice; from tissue; host or cells: whole rat brain excluding cerebellum, membrane homogenate
T3 sequence (P34975 whole entry): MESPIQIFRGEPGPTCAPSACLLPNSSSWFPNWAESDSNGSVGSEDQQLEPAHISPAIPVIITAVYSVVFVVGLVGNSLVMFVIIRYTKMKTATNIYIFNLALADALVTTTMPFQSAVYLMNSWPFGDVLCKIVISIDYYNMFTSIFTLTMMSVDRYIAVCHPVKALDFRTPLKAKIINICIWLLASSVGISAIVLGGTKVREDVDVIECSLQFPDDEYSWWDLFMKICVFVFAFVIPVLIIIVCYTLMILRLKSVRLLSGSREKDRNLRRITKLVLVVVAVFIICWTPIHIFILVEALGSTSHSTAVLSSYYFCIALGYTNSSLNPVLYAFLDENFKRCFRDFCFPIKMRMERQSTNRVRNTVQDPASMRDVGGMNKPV
In words: Opioid receptor binding, κ sites ([3H]U69,593), rat brain homogenate. Conditions: radioligand displacement at 100 nM.

Assay [3] concerns the target T4, human κ-opioid receptor (OPRK1) (Homo sapiens, UniProt P41145).
T4 construct: host or cells: HitHunter CHO-K1 cells
The assay can be described thus: cell-based. Conditions: for EC50: KOR cAMP Agonist Potency ± SEM; for Emax: CHO-K1, read-out: KOR cAMP % Efficacy.

A further assay has as its target T5, μ-opioid receptor (MOR) (Rattus norvegicus, UniProt P33535).
T5 construct: Frozen whole rat brains excluding cerebellum were thawed on ice; from tissue; host or cells: whole rat brain excluding cerebellum, membrane homogenate
In words: Opioid receptor binding, μ sites ([3H]DAMGO), rat brain homogenate.

Another assay addresses T6, δ-opioid receptor (DOR) (Rattus norvegicus, UniProt P33533).
T6 construct: Frozen whole rat brains excluding cerebellum were thawed on ice; from tissue; host or cells: whole rat brain excluding cerebellum, membrane homogenate
In words: Opioid receptor binding, δ sites ([3H]DADLE), rat brain homogenate.

Assay [4] deals with T7, human μ-opioid receptor β-arrestin-2 (Homo sapiens, UniProt P35372).
T7 construct: enzyme fragment for EFC (β-galactosidase ProLink fragment, by own knowledge of the PathHunter system); host or cells: PathHunter CHO cells
T7 sequence (P35372 whole entry, the tested form may be a part): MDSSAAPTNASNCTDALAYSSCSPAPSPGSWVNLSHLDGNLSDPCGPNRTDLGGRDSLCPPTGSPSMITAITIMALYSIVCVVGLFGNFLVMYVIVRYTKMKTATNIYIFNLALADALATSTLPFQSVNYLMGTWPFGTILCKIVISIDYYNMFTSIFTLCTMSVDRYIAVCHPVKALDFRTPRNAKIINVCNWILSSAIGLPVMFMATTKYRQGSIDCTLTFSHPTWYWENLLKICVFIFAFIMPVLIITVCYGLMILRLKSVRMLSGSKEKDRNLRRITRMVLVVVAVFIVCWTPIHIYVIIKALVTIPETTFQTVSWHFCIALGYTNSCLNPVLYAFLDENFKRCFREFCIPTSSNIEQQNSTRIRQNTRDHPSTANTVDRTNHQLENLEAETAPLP
In words: cell-based. Conditions: for Emax: read-out: MOR Mediated β-arrestin Recruitment (% Control, Emax DAMGO).

T1 sequence (P35372 whole entry): as the sequence (P35372 whole entry, the tested form may be a part) above
T4 sequence (P41145 whole entry): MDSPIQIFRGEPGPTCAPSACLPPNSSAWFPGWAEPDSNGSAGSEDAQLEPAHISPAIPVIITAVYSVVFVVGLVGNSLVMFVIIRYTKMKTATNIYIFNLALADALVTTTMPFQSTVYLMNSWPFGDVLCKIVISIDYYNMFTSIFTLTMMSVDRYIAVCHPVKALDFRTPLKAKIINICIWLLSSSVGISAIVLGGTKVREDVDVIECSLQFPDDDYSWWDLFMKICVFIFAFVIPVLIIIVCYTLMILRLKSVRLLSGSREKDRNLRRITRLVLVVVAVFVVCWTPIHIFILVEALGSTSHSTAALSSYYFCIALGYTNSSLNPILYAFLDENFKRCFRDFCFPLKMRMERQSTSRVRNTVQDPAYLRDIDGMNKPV
T2 sequence (P41143 whole entry): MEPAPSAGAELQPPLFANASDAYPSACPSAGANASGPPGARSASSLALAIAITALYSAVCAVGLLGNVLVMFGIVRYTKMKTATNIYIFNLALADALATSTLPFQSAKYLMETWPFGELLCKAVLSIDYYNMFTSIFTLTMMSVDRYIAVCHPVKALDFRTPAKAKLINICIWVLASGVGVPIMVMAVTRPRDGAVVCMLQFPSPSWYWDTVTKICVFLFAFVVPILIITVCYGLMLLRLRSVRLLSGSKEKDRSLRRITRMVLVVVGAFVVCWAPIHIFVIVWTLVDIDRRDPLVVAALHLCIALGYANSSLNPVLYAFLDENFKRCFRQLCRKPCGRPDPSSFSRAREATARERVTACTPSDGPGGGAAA
T6 sequence (P33533 whole entry): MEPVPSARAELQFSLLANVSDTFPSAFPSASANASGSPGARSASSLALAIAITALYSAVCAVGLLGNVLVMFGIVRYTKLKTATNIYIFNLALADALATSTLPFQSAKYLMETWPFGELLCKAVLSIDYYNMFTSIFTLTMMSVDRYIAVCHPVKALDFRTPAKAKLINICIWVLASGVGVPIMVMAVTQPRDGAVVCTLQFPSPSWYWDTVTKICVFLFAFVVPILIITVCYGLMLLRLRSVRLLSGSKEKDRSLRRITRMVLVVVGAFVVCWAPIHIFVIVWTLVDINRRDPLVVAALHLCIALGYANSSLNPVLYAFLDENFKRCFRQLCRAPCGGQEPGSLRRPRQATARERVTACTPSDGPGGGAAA
T5 sequence (P33535 whole entry): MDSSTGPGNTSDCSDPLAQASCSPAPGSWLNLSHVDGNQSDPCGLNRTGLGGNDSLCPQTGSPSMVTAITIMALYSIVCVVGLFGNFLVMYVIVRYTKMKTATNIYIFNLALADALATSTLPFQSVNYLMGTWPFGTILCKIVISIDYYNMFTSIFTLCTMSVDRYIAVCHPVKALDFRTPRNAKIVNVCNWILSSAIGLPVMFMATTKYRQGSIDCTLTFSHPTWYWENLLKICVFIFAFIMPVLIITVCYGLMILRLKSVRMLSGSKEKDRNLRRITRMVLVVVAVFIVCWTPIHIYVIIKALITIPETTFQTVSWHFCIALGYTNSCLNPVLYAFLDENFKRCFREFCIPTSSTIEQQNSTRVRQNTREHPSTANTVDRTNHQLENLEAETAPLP

As for `O=C1CCC2C3Cc4ccc(O)c5c4[C@@]2(CCN3CC=Cc2ccccc2)[C@H]1O5` (stereo partly drawn) [Compound 1c, (7aR,12bS)-3-Cinnamyl-9-hydroxy-2,3,4,4a,5,6-hexahydro-1H-4,12-methanobenzofuro[3,2-e]isoquinolin-7(7aH)-one], the EC50 in assay [1] was 76.7 nM; in assay [2] it was 1700 nM; in assay [3], over 10000 nM; in assay [4], 584 nM. In addition, the Emax in assay [1] was 103%; in assay [2], 96.5%; in assay [4], 4.1%. For the same molecule, at κ-opioid receptor (KOR), the “KOR Binding, exploratory binding assay” value is “NT (NT = not tested—inactive (<50% activity at 100 nM concentration in exploratory binding assays (displaced less than half of radioligand))”. On μ-opioid receptor (MOR), this molecule came in with a Ki of 90.5 ± 11 nM. In addition, at δ-opioid receptor (DOR) (radioligand displacement at 100 nM), the “DOR Binding, exploratory binding assay” value is “NT (NT = not tested—inactive (<50% activity at 100 nM concentration in exploratory binding assays (displaced less than half of radioligand))”. In assay [4], the “Bias Factor” value was 1.35.

`O=C1CCC2C3Cc4ccc(O)c5c4[C@@]2(CCN3CC2Cc3ccccc3C2)[C@H]1O5` (stereo partly drawn) [Compound 1d, (7aR,12bS)-3-((2,3-Dihydro-1H-inden-2-yl)methyl)-9-hydroxy-2,3,4,4a,5,6-hexahydro-1H-4,12-methano-benzofuro[3,2-e]isoquinolin-7(7aH)-one]: the EC50 in assay [1] is 18.3 nM; in assay [2] it was 596 nM; in assay [3], over 10000 nM; in assay [4], 130 nM. Besides, the Emax in assay [1] was 95.2%; in assay [2], 94.4%; in assay [4] it was 1.9%. Besides, the “KOR Binding, exploratory binding assay” value on κ-opioid receptor (KOR) is “NT (NT = not tested—inactive (<50% activity at 100 nM concentration in exploratory binding assays (displaced less than half of radioligand))”. Moreover, the inhibition constant (Ki) on μ-opioid receptor (MOR) stood at 40.1 ± 5.9 nM; on δ-opioid receptor (DOR) it was 844 ± 107 nM. The “Bias Factor” value in assay [4] was 2.53.

For `O=C(O)C(=O)O.O=C1CCC2[C@H]3Cc4ccc(O)c5c4[C@@]2(CCN3CCc2ccc(Br)cc2)[C@H]1O5` (stereo partly drawn) [Compound 2j, (4R,7aR,12bS)-3-(4-Bromophenethyl)-9-hydroxy-2,3,4,4a,5,6-hexahydro-1H-4,12-methanobenzofuro[3,2-e]-isoquinolin-7(7aH)-one oxalate], in assay [1], it took 0.15 nM to reach a half-maximal effect (EC50) and the Emax was 103%. In assay [2], the “EC50 δ/μ ratio in the cAMP assay” value is given as 6.5, the Emax came to 96% and the half-maximal effective concentration (EC50) turned out to be 0.97 nM. Also, in assay [3], the Emax is 99%; the EC50 was 20 nM and 20.1 nM. Further, in assay [4], the “Bias Factor” value was determined as 0.43, the EC50 was determined as 4.9 nM and the Emax is 53%.

Turning to `O=C1CCC2C3Cc4ccc(O)c5c4[C@@]2(CCN3CCc2c(Cl)cccc2Cl)[C@H]1O5` (stereo partly drawn) [Compound 2k, (7aR,12bS)-3-(2,6-Dichlorophenethyl)-9-hydroxy-2,3,4,4a,5,6-hexahydro-1H-4,12-methanobenzofuro[3,2-e]isoquinolin-7(7aH)-one], the concentration for a half-maximal effect (EC50) in assay [1] came out at 0.37 nM; in assay [2] it was 21.9 nM; in assay [3], 1880 nM; in assay [4], 13.1 nM. The Emax in assay [1] is 101%; in assay [2], 95.8%; in assay [3], 74%; in assay [4], 24.6%. Further, the “Bias Factor” value in assay [4] is given as 1.04.

`O=C1CCC2C3Cc4ccc(O)c5c4C2(CCN3CCc2ccccc2)C1O5` (stereo not shown) [Compound S11, N-Phenethylnorhydromorphone]: the EC50 in assay [1] is 0.04 nM; in assay [2] it was 1.54 nM; in assay [3], 23 nM and 22.7 nM; in assay [4], 1.71 nM. In addition, the Emax in assay [1] is 102%; in assay [2], 95.1%; in assay [3], 80.6%; in assay [4] it was 61.9%. In addition, the “EC50 δ/μ ratio in the cAMP assay” value in assay [2] is 38.5 and 39. Moreover, in assay [4], the “Bias Factor” value turned out to be 0.47.

As to `C[C@@H](NC(=O)[C@@H](N)Cc1ccc(O)cc1)C(=O)NCC(=O)N(C)[C@@H](Cc1ccccc1)C(=O)NCCO` [DAMGO, [D-Ala^2, N-MePhe^4, Gly-ol]-enkephalin, reference compound], the Emax in assay [1] was 102%.
